Measured values taken from ChEMBL document CHEMBL1287722, “Azaindole N-methyl hydroxamic acids as HIV-1 integrase inhibitors-II. The impact of physicochemical properties on ADME and PK” (Bioorg Med Chem Lett, 2010).
Calls of active or inactive are those of the source. The rule behind the calls is not given here.

Experiments:
[1] = Cytotoxicity against human CEM-SS cells by XTT assay; assay type: cell-based
[2] = Volume of distribution at steady state in dog at 1 mg/kg, iv and 5 mg/kg, po; assay type: ADME, organism-based, Canis lupus familiaris; conditions: in vivo, read-out: Vdss
[3] = Plasma clearance in dog at 1 mg/kg, iv and 5 mg/kg, po; assay type: ADME, organism-based, Canis lupus familiaris
[4] = target: T1, Cytochrome P450 1A2 (Homo sapiens, UniProt P05177); assay: Inhibition of CYP1A2; assay type: ADME
T1 sequence (P05177 whole entry): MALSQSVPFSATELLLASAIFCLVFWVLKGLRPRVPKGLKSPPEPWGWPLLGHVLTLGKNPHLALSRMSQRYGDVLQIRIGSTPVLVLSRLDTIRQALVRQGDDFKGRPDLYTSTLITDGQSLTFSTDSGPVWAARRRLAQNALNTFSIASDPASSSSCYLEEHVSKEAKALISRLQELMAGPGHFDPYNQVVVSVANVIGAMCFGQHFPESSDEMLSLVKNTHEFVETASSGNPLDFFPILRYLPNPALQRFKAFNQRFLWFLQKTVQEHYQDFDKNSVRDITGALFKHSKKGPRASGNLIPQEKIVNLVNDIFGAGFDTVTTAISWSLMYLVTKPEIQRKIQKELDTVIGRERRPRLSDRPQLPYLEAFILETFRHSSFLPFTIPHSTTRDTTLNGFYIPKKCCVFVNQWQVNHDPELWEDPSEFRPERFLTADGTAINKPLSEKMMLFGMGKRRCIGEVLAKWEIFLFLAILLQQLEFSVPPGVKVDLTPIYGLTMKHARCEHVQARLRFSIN

[5] = Volume of distribution at steady state in human; assay type: ADME, organism-based; conditions: in vivo, read-out: Vdss
[6] = Oral bioavailability in human; assay type: ADME, organism-based; conditions: in vivo
[7] = target: Cytochrome P450 2C19 (Homo sapiens, UniProt P33261); assay: Inhibition of CYP2C19; assay type: ADME
[8] = target: Cytochrome P450 2C9 (Homo sapiens, UniProt P11712); assay: Inhibition of CYP2C9; assay type: ADME
[9] = Inhibition of magnesium dependent protein kinase
[10] = target: Cytochrome P450 2D6 (Homo sapiens, UniProt P10635); assay: Inhibition of CYP2D6; assay type: ADME
[11] = Blood clearance in human; assay type: ADME, organism-based; conditions: whole blood
[12] = target: Cytochrome P450 3A4 (Homo sapiens, UniProt P08684); assay: Inhibition of CYP3A4; assay type: ADME
[13] = Inhibition of matrix metalloprotease
[14] = Half life in dog at 1 mg/kg, iv and 5 mg/kg, po; assay type: ADME, organism-based, Canis lupus familiaris; conditions: in vivo
[15] = target: T2, Cytochrome P450 2C8 (Homo sapiens, UniProt P10632); assay: Inhibition of CYP2C8; assay type: ADME
T2 sequence (P10632 whole entry): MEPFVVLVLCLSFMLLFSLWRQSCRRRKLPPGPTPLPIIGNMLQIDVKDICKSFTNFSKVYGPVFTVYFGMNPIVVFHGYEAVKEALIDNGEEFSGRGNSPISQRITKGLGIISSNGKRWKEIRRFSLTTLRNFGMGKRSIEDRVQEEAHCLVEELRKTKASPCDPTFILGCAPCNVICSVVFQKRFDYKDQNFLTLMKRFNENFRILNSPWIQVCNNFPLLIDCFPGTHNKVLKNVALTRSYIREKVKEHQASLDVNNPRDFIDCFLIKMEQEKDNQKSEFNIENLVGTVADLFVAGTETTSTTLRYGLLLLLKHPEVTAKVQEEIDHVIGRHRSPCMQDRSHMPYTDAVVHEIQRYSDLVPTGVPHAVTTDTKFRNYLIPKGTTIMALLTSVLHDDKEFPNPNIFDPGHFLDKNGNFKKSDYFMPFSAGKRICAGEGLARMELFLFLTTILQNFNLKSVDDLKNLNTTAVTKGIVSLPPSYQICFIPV

[16] = target: Voltage-gated inwardly rectifying potassium channel KCNH2 (Homo sapiens, UniProt Q12809); assay: Inhibition of human ERG
[17] = tested on: Hepacivirus hominis; assay: Inhibition of HCV RNA-directed RNA polymerase
[18] = Oral bioavailability in dog at 1 mg/kg, iv and 5 mg/kg, po; assay type: ADME, organism-based, Canis lupus familiaris; conditions: in vivo
[19] = target: Human immunodeficiency virus type 1 integrase (Human immunodeficiency virus 1, UniProt Q7ZJM1); assay: Inhibition of HIV1 RF integrase after 50 mins by strand transfer scintillation proximity assay
[20] = Metabolic stability in human hepatocyte assessed as extraction ratio at 4 hrs; assay type: ADME, cell-based; conditions: hepatocytes
[21] = tested on: Human immunodeficiency virus 1; assay: Antiviral activity against HIV1 RF infected in human CEM-SS cells assessed as inhibition of virus-induced cytopathic effect after 6 days by XTT assay; assay type: functional, organism-based; conditions: Human immunodeficiency virus 1, RF, 144 h

Sequence of Human immunodeficiency virus type 1 integrase (Q7ZJM1 whole entry): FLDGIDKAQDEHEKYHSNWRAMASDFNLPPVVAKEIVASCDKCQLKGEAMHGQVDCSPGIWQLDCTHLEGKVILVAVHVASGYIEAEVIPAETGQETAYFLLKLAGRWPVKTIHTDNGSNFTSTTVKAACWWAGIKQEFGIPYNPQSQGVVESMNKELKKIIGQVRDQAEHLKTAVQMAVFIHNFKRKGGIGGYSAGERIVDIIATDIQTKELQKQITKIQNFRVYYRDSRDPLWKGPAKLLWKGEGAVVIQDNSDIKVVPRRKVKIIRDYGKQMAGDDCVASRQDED
Sequence of Cytochrome P450 2D6 (P10635 whole entry): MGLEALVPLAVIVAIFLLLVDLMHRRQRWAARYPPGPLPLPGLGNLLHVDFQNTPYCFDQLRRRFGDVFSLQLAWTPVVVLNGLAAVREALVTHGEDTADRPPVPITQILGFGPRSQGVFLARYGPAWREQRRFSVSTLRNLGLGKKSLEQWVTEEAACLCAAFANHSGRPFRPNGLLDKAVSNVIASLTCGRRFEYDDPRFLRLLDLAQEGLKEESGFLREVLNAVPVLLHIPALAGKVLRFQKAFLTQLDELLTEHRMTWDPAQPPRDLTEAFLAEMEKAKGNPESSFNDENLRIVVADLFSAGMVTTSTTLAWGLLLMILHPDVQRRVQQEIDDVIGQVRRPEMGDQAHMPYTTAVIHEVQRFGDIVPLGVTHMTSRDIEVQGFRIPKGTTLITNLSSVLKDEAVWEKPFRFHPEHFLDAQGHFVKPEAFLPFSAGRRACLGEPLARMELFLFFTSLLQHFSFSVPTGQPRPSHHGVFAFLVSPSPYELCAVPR
Sequence of Voltage-gated inwardly rectifying potassium channel KCNH2 (Q12809 whole entry): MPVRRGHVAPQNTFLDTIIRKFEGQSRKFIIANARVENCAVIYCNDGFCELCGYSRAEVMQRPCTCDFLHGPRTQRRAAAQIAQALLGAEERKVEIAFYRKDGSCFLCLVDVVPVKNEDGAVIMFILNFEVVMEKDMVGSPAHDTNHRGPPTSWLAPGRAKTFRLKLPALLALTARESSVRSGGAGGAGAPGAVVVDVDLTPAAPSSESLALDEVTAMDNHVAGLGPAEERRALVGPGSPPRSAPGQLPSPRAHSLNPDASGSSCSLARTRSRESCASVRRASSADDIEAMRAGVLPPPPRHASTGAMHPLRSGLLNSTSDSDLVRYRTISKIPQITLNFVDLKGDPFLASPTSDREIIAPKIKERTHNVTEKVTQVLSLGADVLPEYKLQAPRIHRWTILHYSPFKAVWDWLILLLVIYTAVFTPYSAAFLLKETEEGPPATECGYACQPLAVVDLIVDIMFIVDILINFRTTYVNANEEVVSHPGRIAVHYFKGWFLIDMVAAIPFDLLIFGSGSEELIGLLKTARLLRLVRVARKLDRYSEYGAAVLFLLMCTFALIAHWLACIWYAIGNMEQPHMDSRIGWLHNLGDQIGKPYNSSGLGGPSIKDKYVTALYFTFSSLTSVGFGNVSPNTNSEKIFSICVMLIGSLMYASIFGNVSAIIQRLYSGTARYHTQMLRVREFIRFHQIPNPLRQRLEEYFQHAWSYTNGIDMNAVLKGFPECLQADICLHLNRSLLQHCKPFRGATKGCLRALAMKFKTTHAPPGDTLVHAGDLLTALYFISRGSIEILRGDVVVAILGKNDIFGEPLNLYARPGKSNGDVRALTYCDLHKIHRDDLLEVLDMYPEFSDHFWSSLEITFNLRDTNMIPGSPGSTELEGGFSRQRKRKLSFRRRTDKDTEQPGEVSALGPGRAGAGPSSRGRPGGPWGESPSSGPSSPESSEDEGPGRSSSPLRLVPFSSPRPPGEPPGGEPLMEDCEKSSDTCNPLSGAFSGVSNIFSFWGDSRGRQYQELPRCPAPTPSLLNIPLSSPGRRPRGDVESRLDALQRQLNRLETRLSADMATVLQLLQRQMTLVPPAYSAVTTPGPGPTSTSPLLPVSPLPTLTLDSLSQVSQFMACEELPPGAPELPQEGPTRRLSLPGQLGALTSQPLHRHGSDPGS
Sequence of Cytochrome P450 2C19 (P33261 whole entry): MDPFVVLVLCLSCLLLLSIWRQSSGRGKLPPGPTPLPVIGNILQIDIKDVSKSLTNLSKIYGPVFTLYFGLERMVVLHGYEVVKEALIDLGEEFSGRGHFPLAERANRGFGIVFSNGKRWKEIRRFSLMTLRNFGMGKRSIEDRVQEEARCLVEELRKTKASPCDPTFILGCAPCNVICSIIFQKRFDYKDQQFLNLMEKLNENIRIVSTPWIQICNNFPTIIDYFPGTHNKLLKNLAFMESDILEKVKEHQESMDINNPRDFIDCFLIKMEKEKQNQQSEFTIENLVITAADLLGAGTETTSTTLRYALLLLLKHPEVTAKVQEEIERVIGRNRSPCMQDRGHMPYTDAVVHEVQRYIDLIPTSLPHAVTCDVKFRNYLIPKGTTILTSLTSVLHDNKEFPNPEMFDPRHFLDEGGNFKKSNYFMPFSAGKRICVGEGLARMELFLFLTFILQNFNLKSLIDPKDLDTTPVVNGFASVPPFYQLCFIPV
Sequence of Cytochrome P450 2C9 (P11712 whole entry): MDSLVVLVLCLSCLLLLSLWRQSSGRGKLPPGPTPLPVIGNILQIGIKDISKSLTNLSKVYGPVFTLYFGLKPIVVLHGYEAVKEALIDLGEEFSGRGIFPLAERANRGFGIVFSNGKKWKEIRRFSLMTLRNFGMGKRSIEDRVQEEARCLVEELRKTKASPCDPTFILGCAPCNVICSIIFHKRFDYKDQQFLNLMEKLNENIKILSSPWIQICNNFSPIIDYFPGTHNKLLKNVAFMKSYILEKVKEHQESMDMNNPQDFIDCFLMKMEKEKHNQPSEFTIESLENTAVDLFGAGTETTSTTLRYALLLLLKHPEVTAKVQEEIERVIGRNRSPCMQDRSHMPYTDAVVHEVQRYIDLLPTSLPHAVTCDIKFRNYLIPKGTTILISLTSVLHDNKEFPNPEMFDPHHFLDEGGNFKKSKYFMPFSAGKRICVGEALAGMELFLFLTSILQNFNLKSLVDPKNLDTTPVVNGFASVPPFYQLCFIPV
Sequence of Cytochrome P450 3A4 (P08684 whole entry): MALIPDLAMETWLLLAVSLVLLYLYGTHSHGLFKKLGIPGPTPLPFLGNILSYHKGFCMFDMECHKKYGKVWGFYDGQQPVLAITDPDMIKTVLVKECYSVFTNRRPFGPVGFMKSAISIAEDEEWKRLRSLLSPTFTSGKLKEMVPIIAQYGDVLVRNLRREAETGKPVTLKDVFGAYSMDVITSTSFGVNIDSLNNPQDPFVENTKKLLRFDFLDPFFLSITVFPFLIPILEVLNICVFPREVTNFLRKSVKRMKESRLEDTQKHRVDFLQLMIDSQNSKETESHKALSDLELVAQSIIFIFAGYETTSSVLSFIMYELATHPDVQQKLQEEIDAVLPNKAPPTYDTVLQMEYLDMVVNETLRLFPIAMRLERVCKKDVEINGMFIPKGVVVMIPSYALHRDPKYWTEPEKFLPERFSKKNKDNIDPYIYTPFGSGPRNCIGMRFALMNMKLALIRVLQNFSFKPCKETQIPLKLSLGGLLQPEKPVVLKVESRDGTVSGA

Compound | CC50 [1] [nM] | IC50 [19] [nM] | hepatic extraction ratio at 4 h [20] | EC50 [21] [nM] | also measured
CN(O)C(=O)c1cc2c(CN3CCC[C@H]3C(N)=O)cn(Cc3ccc(F)cc3)c2cn1 | 216000 | – | – | – | Vd [2]: 2.32 L/kg; clearance [3]: 15 mL/min/kg; IC50 [4]: > 30000 nM; Vd [5]: 2.15 L/kg; bioavailability [6]: 41%; IC50 [7]: > 30000 nM; IC50 [8]: > 30000 nM; IC50 [9]: > 1000 nM; IC50 [10]: > 30000 nM; clearance [11]: 5.5 mL/min/kg; IC50 [12]: > 30000 nM; IC50 [13]: > 50000 nM; half-life [14]: 6.2 h; IC50 [15]: > 30000 nM; IC50 [16]: > 30000 nM; inhibition [17]: inactive; bioavailability [18]: 53%
CN(O)C(=O)c1cc2c(CCCO)cn(Cc3ccc(F)cc3)c2cn1 | > 10000 | 340 | 1 | 41 | –
CN(O)C(=O)c1cc2c(CCCN3CCOCC3)cn(Cc3ccc(F)cc3)c2cn1 | > 10000 | 559 | 0.98 | 470 | –
CN(O)C(=O)c1cc2c(CN3CCNC(=O)C3)cn(Cc3ccc(F)cc3)c2cn1 | > 100000 | 388 | 0.3 | 150 | Vd [2]: 1.8 L/kg; clearance [3]: 24 mL/min/kg; half-life [14]: 1.27 h; bioavailability [18]: 20%
CN(O)C(=O)c1cc2c(CO)cn(Cc3ccc(F)cc3)c2cn1 | > 266000 | 145 | 1 | 54 | –
CN(O)C(=O)c1cc2c(C(=O)N3CCC[C@@H]3CO)cn(Cc3ccc(F)cc3)c2cn1 | > 32000 | 319 | 0.2 | 170 | –
CN(O)C(=O)c1cc2ccn(Cc3ccc(F)cc3)c2cn1 | 135000 | 250 | – | – | –
CN(O)C(=O)c1cc2c(CN3CCC(O)C3)cn(Cc3ccc(F)cc3)c2cn1 (stereo not given) | > 100000 | 1420 | 0.55 | 747 | –
CN(O)C(=O)c1cc2c(C(=O)NCCN3CCOCC3)cn(Cc3ccc(F)cc3)c2cn1 | 32000 | 503 | 0.25 | 210 | –
COCCOCc1cn(Cc2ccc(F)cc2)c2cnc(C(=O)N(C)O)cc12 | > 100000 | 382 | 0.51 | 29 | –
CC(C)NC(=O)c1cn(Cc2ccc(F)cc2)c2cnc(C(=O)N(C)O)cc12 | > 100000 | 251 | 0.25 | 110 | –
CCOCCOCc1cn(Cc2ccc(F)cc2)c2cnc(C(=O)N(C)O)cc12 | 81000 | 308 | 0.57 | 57 | –
CN(O)C(=O)c1cc2c(CN3CCC[C@@H]3C(N)=O)cn(Cc3ccc(F)cc3)c2cn1 | > 100000 | – | – | 80 | –
CN(O)C(=O)c1cc2c(COC3CCOCC3)cn(Cc3ccc(F)cc3)c2cn1 | > 100000 | 313 | 0.86 | 57 | –
COCc1cn(Cc2ccc(F)cc2)c2cnc(C(=O)N(C)O)cc12 | 266000 | 242 | 1 | 41 | –
CN1CCN(Cc2cn(Cc3ccc(F)cc3)c3cnc(C(=O)N(C)O)cc23)CC1 | > 224000 | 534 | 0.55 | 220 | –
COCCOCCCc1cn(Cc2ccc(F)cc2)c2cnc(C(=O)N(C)O)cc12 | > 10000 | 552 | 0.97 | 220 | –
CN(O)C(=O)c1cc2ccn(Cc3ccc(F)cc3F)c2cn1 | 200000 | 250 | – | 39 | –
